Experimental data reported in ChEMBL document CHEMBL1150712, “Plant anticancer agents, XLIII. (E,E)-7, 12-dioxo-octadeca-8, 10-dien-1-oic acid (ostopanic acid), a cytotoxic fatty acid from Ostodes Paniculata” (1987).
Converted amounts (≈) assume the structure as drawn.

System: P388
Assay: Cytotoxicity against mouse P388 cells
Assay type: functional
Conditions: read-out: ED50 (the source's name)

`CCCCCCC(=O)/C=C/C=C/C(=O)CCCCCC(=O)O` [OSTOPANIC ACID] gave an EC50 of 1.5 µg/mL (≈ 4.86 µM).
